From paper PMC10821229, “Synthesis and Antiviral Activity of Novel β-D-N4-Hydroxycytidine Ester Prodrugs as Potential Compounds for the Treatment of SARS-CoV-2 and Other Human Coronaviruses” (Pharmaceuticals, 2023)
“Also recorded” adds a separate entry of the source.

Tested on: HCoV-229E and three SARS-CoV-2 variants
Experiment: Antiviral effect against all tested coronavirus variants (text comparisons)
Format: cell-based, human coronavirus
Details: for antiviral effect against all tested coronavirus variants (in words): HCoV-229E and three SARS-CoV-2 variants

| Structure (SMILES) | antiviral effect against all tested coronavirus variants (in words) | other results |
| --- | --- | --- |
| O=C(Cc1ccccc1F)OC[C@H]1O[C@@H](n2ccc(NO)nc2=O)[C@H](O)[C@@H]1O [SN_17, 5′-O-(2-Fluorophenyl)acetyl-N4-hydroxycytidine] | – | fold increase in antiviral activity compared to SN_18 (compared with 4-fluoro substituted conjugate SN_18): ≥ 2 fold |
| O=C(OC[C@H]1O[C@@H](n2ccc(NO)nc2=O)[C@H](O)[C@@H]1O)C1(c2ccccc2)CC1 [SN_20, 5′-O-(1-Phenylcyclopropanoyl-1-carbonyl)-N4-hydroxycytidine] | no antiviral effect; also recorded: lowest activity | – |
| Cc1cccc(OCC(=O)OC[C@H]2O[C@@H](n3ccc(NO)nc3=O)[C@H](O)[C@@H]2O)c1 [SN_22, 5′-O-(3-Methylphenoxy)acetyl-N4-hydroxycytidine] | highest activity | – |
| COc1cccc(CCC(=O)OC[C@H]2O[C@@H](n3ccc(NO)nc3=O)[C@H](O)[C@@H]2O)c1 [SN_23, 5′-O-3-(3-Methoxyphenyl)propanoyl-N4-hydroxycytidine] | – | times higher antiviral effect than SN_15 and SN_16 (compared with SN_15 and SN_16): 2–6 times |
